For this assay, the target named is T1, SGLT1 (Mus musculus, UniProt Q8C3K6).
T1 construct: from tissue; host or cells: ileal mucosa of NIH Swiss mice
T1 sequence (Q8C3K6 1-665): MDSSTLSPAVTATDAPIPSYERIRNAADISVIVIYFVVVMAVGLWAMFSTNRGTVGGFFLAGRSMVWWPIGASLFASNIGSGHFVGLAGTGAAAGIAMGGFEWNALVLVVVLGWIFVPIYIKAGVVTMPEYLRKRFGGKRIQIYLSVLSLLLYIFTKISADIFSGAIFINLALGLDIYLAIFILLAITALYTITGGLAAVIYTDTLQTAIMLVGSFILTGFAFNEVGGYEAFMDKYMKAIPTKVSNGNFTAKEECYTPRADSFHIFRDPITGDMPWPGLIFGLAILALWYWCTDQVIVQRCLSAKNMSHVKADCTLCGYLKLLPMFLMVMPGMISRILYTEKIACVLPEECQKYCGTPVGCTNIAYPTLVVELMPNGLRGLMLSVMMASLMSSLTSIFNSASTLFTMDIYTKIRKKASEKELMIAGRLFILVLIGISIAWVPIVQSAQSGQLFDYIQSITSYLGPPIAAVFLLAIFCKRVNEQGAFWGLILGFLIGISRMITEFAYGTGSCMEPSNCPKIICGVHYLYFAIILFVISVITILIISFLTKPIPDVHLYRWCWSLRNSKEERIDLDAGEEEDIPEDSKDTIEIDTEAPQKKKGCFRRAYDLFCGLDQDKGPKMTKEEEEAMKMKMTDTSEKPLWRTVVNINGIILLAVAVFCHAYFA
Description: Saturation kinetics of Na+-coupled glucose / 3-OMG transport (Isc, Ussing chamber, ileal sheets). The format is cell-based. The text has this:
Normally fed, 8-week-old, male NIH Swiss mice are sacrificed by CO2 inhalation, followed by cervical dislocation. The small intestine is gently removed, and the segment is washed and flushed in ice-cold Ringer's solution. Then the mucosa is separated from the serosa and the muscular layers by striping through the submucosal plane as previously described (Zhang et al. (2007) J Physiol 581(3):1221-1233). Following exsanguinations, ileal mucosa is obtained from a 10 cm segment close to the caecum. All experiments are approved by the University of Florida Institutional Animal Care and Use Committee.
Ion transport studies are performed on ileal sheets. Tissues are then mounted in between the two halves of an Ussing type-Lucite chamber with 0.3 cm^−2 exposed surface areas (P2304, Physiologic Instruments, San Diego, Calif., USA). […] The basal short-circuit current (Isc) and the corresponding conductance (G) are recorded using a computer controlled voltage/current clamp device (VCC MC-8, Physiologic Instruments).
Tissues paired with similar conductance and current are treated with or without 100 μM H-89 (Santa Cruz Biotechnology, Inc, Santa Cruz, Calif.), an irreversible protein kinase A (PKA) inhibitor. […] Saturation kinetic constant is calculated for the corresponding Km and Vmax for treated and untreated tissues. […]

The structures appear in SMILES notation.

In the case of `CO[C@@H]([C@H](O)[C@H](O)CO)[C@@H](O)C=O` [Formulation 3-OMG, 3-O-methylglucose], the Vmax runs as follows: (Table 1, no PKA inhibitor, n = 8 tissues) 2.7 ± 0.1; (Table 1, with H-89, n = 8 tissues) 1.4 ± 0.1.
